{"source": "ChEMBL document CHEMBL1201862", "about": "“PubChem BioAssay data set” (2004)", "assay_in_all_cases": "growth of human tumour cells (NCI), 48 h", "key": {"A498": {"tested_on": "A498"}, "A549": {"tested_on": "A549"}, "CAKI-1": {"tested_on": "CAKI-1"}, "CCRF-CEM": {"tested_on": "CCRF-CEM"}, "COLO 205": {"tested_on": "COLO 205"}, "DLD-1": {"tested_on": "DLD-1"}, "DMS-114": {"tested_on": "DMS-114"}, "DMS-273": {"tested_on": "DMS-273"}, "EKVX": {"tested_on": "EKVX"}, "HCC 2998": {"tested_on": "HCC 2998"}, "HCT-116": {"tested_on": "HCT-116"}, "HCT-15": {"tested_on": "HCT-15"}, "HL-60": {"tested_on": "HL-60"}, "HOP-18": {"tested_on": "HOP-18"}, "HOP-62": {"tested_on": "HOP-62"}, "HOP-92": {"tested_on": "HOP-92"}, "HT-29": {"tested_on": "HT-29"}, "IGROV-1": {"tested_on": "IGROV-1"}, "K562": {"tested_on": "K562"}, "KM-20L2": {"tested_on": "KM-20L2"}, "KM12": {"tested_on": "KM12"}, "LOX IMVI": {"tested_on": "LOX IMVI"}, "M19-MEL": {"tested_on": "M19-MEL"}, "MCF7": {"tested_on": "MCF7"}, "MOLT-4": {"tested_on": "MOLT-4"}, "Malme-3M": {"tested_on": "Malme-3M"}, "NCI-H226": {"tested_on": "NCI-H226"}, "NCI-H23": {"tested_on": "NCI-H23"}, "NCI-H460": {"tested_on": "NCI-H460"}, "NCI-H522": {"tested_on": "NCI-H522"}, "NCI/ADR-RES": {"tested_on": "NCI/ADR-RES"}, "OVCAR-3": {"tested_on": "OVCAR-3"}, "OVCAR-4": {"tested_on": "OVCAR-4"}, "OVCAR-5": {"tested_on": "OVCAR-5"}, "OVCAR-8": {"tested_on": "OVCAR-8"}, "RPMI-8226": {"tested_on": "RPMI-8226"}, "RXF 393": {"tested_on": "RXF 393"}, "SF-268": {"tested_on": "SF-268"}, "SF-295": {"tested_on": "SF-295"}, "SF-539": {"tested_on": "SF-539"}, "SK-MEL-28": {"tested_on": "SK-MEL-28"}, "SK-MEL-2": {"tested_on": "SK-MEL-2"}, "SK-MEL-5": {"tested_on": "SK-MEL-5"}, "SK-OV-3": {"tested_on": "SK-OV-3"}, "SN12C": {"tested_on": "SN12C"}, "SNB-19": {"tested_on": "SNB-19"}, "SNB-75": {"tested_on": "SNB-75"}, "SNB-78": {"tested_on": "SNB-78"}, "SW-620": {"tested_on": "SW-620"}, "U-251": {"tested_on": "U-251"}, "UACC-257": {"tested_on": "UACC-257"}, "UACC-62": {"tested_on": "UACC-62"}, "UO-31": {"tested_on": "UO-31"}, "XF498": {"tested_on": "XF498"}}, "note": "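Interpolation was linear, between the two tested concentrations surrounding the appropriate level; five concentrations were tested over 48 hours in 96-well plates. GI50 marks 50% less growth.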 Active and inactive are the calls of the source. Cut-off read from the data, not from the text of the source: active = GI50 up to about 1.1 µM and inactive = higher."}
{"smiles": "O=C1c2ccccc2C(O)(C(=O)O)C1(O)CC=C(Cl)Cl", "note": "(centres undefined)", "values": [{"measurement": "GI50", "setting": "A498", "value": "> 125 µM (inactive)"}, {"measurement": "GI50", "setting": "A549", "value": "> 125 µM (inactive)"}, {"measurement": "GI50", "setting": "CAKI-1", "value": "> 125 µM (inactive)"}, {"measurement": "GI50", "setting": "CCRF-CEM", "value": "> 125 µM (inactive)"}, {"measurement": "GI50", "setting": "COLO 205", "value": "> 125 µM (inactive)"}, {"measurement": "GI50", "setting": "DLD-1", "value": "> 125 µM (inactive)"}, {"measurement": "GI50", "setting": "DMS-114", "value": "> 125 µM (inactive)"}, {"measurement": "GI50", "setting": "DMS-273", "value": "> 125 µM (inactive)"}, {"measurement": "GI50", "setting": "EKVX", "value": "> 125 µM (inactive)"}, {"measurement": "GI50", "setting": "HCC 2998", "value": "> 125 µM (inactive)"}, {"measurement": "GI50", "setting": "HCT-116", "value": "> 125 µM (inactive)"}, {"measurement": "GI50", "setting": "HCT-15", "value": "> 125", "unit": "µM"}, {"measurement": "GI50", "setting": "HL-60", "value": "> 125 µM (inactive)"}, {"measurement": "GI50", "setting": "HOP-18", "value": "> 125 µM (inactive)"}, {"measurement": "GI50", "setting": "HOP-62", "value": "> 125 µM (inactive)"}, {"measurement": "GI50", "setting": "HOP-92", "value": "> 74.6 µM (inactive)"}, {"measurement": "GI50", "setting": "HT-29", "value": "> 125 µM (inactive)"}, {"measurement": "GI50", "setting": "IGROV-1", "value": "> 125 µM (inactive)"}, {"measurement": "GI50", "setting": "K562", "value": "> 125 µM (inactive)"}, {"measurement": "GI50", "setting": "KM-20L2", "value": "> 125 µM (inactive)"}, {"measurement": "GI50", "setting": "KM12", "value": "> 125 µM (inactive)"}, {"measurement": "GI50", "setting": "LOX IMVI", "value": "> 125 µM (inactive)"}, {"measurement": "GI50", "setting": "M19-MEL", "value": "> 125 µM (inactive)"}, {"measurement": "GI50", "setting": "MCF7", "value": "> 125 µM (inactive)"}, {"measurement": "GI50", "setting": "MOLT-4", "value": "> 125 µM (inactive)"}, {"measurement": "GI50", "setting": "Malme-3M", "value": "> 125 µM (inactive)"}, {"measurement": "GI50", "setting": "NCI-H226", "value": "> 125 µM (inactive)"}, {"measurement": "GI50", "setting": "NCI-H23", "value": "> 125 µM (inactive)"}, {"measurement": "GI50", "setting": "NCI-H460", "value": "> 125 µM (inactive)"}, {"measurement": "GI50", "setting": "NCI-H522", "value": "> 125 µM (inactive)"}, {"measurement": "GI50", "setting": "NCI/ADR-RES", "value": "> 125 µM (inactive)"}, {"measurement": "GI50", "setting": "OVCAR-3", "value": "> 125 µM (inactive)"}, {"measurement": "GI50", "setting": "OVCAR-4", "value": "> 125 µM (inactive)"}, {"measurement": "GI50", "setting": "OVCAR-5", "value": "> 125 µM (inactive)"}, {"measurement": "GI50", "setting": "OVCAR-8", "value": "> 125 µM (inactive)"}, {"measurement": "GI50", "setting": "RPMI-8226", "value": "> 125 µM (inactive)"}, {"measurement": "GI50", "setting": "RXF 393", "value": "> 125 µM (inactive)"}, {"measurement": "GI50", "setting": "SF-268", "value": "> 125 µM (inactive)"}, {"measurement": "GI50", "setting": "SF-295", "value": "> 125 µM (inactive)"}, {"measurement": "GI50", "setting": "SF-539", "value": "> 125 µM (inactive)"}, {"measurement": "GI50", "setting": "SK-MEL-28", "value": "> 125 µM (inactive)"}, {"measurement": "GI50", "setting": "SK-MEL-2", "value": "> 125 µM (inactive)"}, {"measurement": "GI50", "setting": "SK-MEL-5", "value": "> 125 µM (inactive)"}, {"measurement": "GI50", "setting": "SK-OV-3", "value": "> 125 µM (inactive)"}, {"measurement": "GI50", "setting": "SN12C", "value": "> 125 µM (inactive)"}, {"measurement": "GI50", "setting": "SNB-19", "value": "> 78.9 µM (inactive)"}, {"measurement": "GI50", "setting": "SNB-75", "value": "> 125 µM (inactive)"}, {"measurement": "GI50", "setting": "SNB-78", "value": "> 125 µM (inactive)"}, {"measurement": "GI50", "setting": "SW-620", "value": "> 125 µM (inactive)"}, {"measurement": "GI50", "setting": "U-251", "value": "> 28.2 µM (inactive)"}, {"measurement": "GI50", "setting": "UACC-257", "value": "> 125 µM (inactive)"}, {"measurement": "GI50", "setting": "UACC-62", "value": "> 125 µM (inactive)"}, {"measurement": "GI50", "setting": "UO-31", "value": "> 112 µM (inactive)"}, {"measurement": "GI50", "setting": "XF498", "value": "> 125 µM (inactive)"}]}
